The source of these data is US9862702B2, “Processes for the preparation of pesticidal compounds” (Dow AgroSciences LLC, priority 2013, dated 2018).

The structures appear in SMILES notation. Counter-ions that a name gives are not always drawn. Some results are limits rather than exact numbers.

Series [1] has as its system Green Peach Aphid ("GPA") (Myzus persicae) (MYZUPE). In words: Bioassays on Green Peach Aphid (GPA), foliar spray on infested cabbage seedlings. As to conditions: 72 h, 200 ppm test solution sprayed on cabbage leaves until runoff, live aphids counted after three days at about 25° C., read-out: MYZUPE rating (% Control of Mortality, Abbott-corrected). It is filed as in vivo. An excerpt: Example A Bioassays on Green Peach Aphid (“GPA”) (Myzus persicae) (MYZUPE.)
GPA is the most significant aphid pest of peach trees, causing decreased growth, shriveling of leaves, and the death of various tissues. It is also hazardous because it acts as a vector for the transport of plant viruses, such as potato virus Y and potato leafroll virus to members of the nightshade/potato family Solanaceae, and various mosaic viruses to many other food crops. GPA attacks such plants as broccoli, burdock, cabbage, carrot, cauliflower, daikon, eggplant, green beans, lettuce, macadamia, papaya, peppers, sweet potatoes, tomatoes, watercress and zucchini among other plants. GPA also attacks many ornamental crops such as carnations, chrysanthemum, flowering white cabbage, poinsettia and roses. GPA has developed resistance to many pesticides.
Several molecules disclosed herein were tested against GPA using procedures described below.
Cabbage seedling grown in 3-in pots, with 2-3 small (3-5 cm) true leaves, were used as test substrate. The seedlings were infested with […] (wingless adult and nymph stages) one day prior to chemical application. Four posts with individual seedlings were used for each treatment. Test compounds (2 mg) were dissolved in 2 mL of acetone/methanol (1:1) solvent, forming stock solutions of 1000 ppm test compound. The stock solutions were diluted 5× with 0.025% Tween 20 in water to obtain the solution at 200 ppm test compound. A hand-held aspirator-type sprayer was used for spraying a solution to both sides of the cabbage leaves until runoff. Reference plants (solvent check) were sprayed with the diluent only containing 20% by volume acetone/methanol (1:1) solvent. Treated plants were held in a holding room for three days at approximately 25° C. and ambient relative humidity (RH) prior to grading. Evaluation was conducted by counting the number of live aphids per plant under a microscope. Percent Control was measured by using Abbott's correction formula (W. S. Abbott, “A Method of Computing the Effectiveness of an Insecticide” J. Econ. Entomol 18 (1925), pp. 265-267) as follows. Corrected % Control=100*(X−Y)/X • where • X=No. of live aphids on solvent check plants and • Y=No. of live aphids on treated plants
The results are indicated in the table entitled “Table 1: GPA (MYZUPE) and sweetpotato whitefly-crawler (BEMITA) Rating Table”.

Series [2] relates to Sweetpotato Whitefly Crawler (Bemisia tabaci) (BEMITA). In words: Bioassays on Sweetpotato Whitefly Crawler, foliar spray on infested cotton plants. It counts as in vivo. As to conditions: 200 ppm test solution sprayed on cotton leaves until runoff, live nymphs counted after 8-9 days at 82° F., 50% RH, read-out: BEMITA rating (% Control of Mortality, Abbott-corrected). An excerpt:
Example B Bioassays on Sweetpotato Whitefly Crawler (Bemisia tabaci) (BEMITA.)
The sweetpotato whitefly, Bemisia tabaci (Gennadius), has been recorded in the United States since the late 1800s. In 1986 in Florida, Bemisia tabaci became an extreme economic pest. Whiteflies usually feed on the lower surface of their host plant leaves. From the egg hatches a minute crawler stage that moves about the leaf until it inserts its microscopic, threadlike mouthparts to feed by sucking sap from the phloem. Adults and nymphs excrete honeydew (largely plant sugars from feeding on phloem), a sticky, viscous liquid in which dark sooty molds grow. Heavy infestations of adults and their progeny can cause seedling death, or reduction in vigor and yield of older plants, due simply to sap removal. The honeydew can stick cotton lint together, making it more difficult to gin and therefore reducing its value. Sooty mold grows on honeydew-covered substrates, obscuring the leaf and reducing photosynthesis, and reducing fruit quality grade. It transmitted plant-pathogenic viruses that had never affected cultivated crops and induced plant physiological disorders, such as tomato irregular ripening and squash silverleaf disorder. Whiteflies are resistant to many formerly effective pesticides.
Cotton plants grown in 3-inch pots, with 1 small (3-5 cm) true leaf, were used at test substrate. The plants were placed in a room with whitefly adults. Adults were allowed to deposit eggs for 2-3 days. After a 2-3 day egg-laying period, plants were taken from the adult whitefly room. Adults were blown off leaves using a hand-held Devilbliss sprayer (23 psi). Plants with egg infestation (100-300 eggs per plant) were placed in a holding room for 5-6 days at 82° F. and 50% RH for egg hatch and crawler stage to develop. Four cotton plants were used for each treatment. Compounds (2 mg) were dissolved in 1 mL of acetone solvent, forming stock solutions of 2000 ppm. The stock solutions were diluted 10× with 0.025% Tween 20 in water to obtain a test solution at 200 ppm. A hand-held Devilbliss sprayer was used for spraying a solution to both sides of cotton leaf until runoff. Reference plants (solvent check) were sprayed with the diluent only. Treated plants were held in a holding room for 8-9 days at approximately 82° F. and 50% RH prior to grading. Evaluation was conducted by counting the number of live nymphs per plant under a microscope.

Take `N#CC1CC(Cl)=NN1c1cccnc1` (stereo not drawn) [Compound 6b, 3-Chloro-1-(pyridine-3-yl)-4,5-dihydro-1H-pyrazole-5-carbonitrile]: the mortality at 200 ppm in series [1] is 0 to 80%; in series [2], less than 0%. Turning to `CCOC(=O)C1CC(=O)NN1c1cccnc1` (stereo not drawn) [Compound 18.6, Ethyl 5-oxo-2-(pyridin-3-yl)pyrazolidine-3-carboxylate], the mortality at 200 ppm in series [1] and in series [2] was 0 to 80% in each case. In the case of `COC(=O)c1cc(Cl)nn1-c1cccnc1` [Compound 6d, Methyl 3-chloro-1-(pyridin-3-yl)-1H-pyrazole-5-carboxylate], the values for the mortality at 200 ppm in series [1] and in series [2] were 0 to 80% and less than 0%, respectively.

For the compound `O=[N+]([O-])c1cn(-c2cccnc2)nc1Cl` [Compound 5c, 3-(3-Chloro-4-nitro-1H-pyrazol-1-yl)pyridine], the melting point lay within 141 to 143 °C. As for `COC(=O)C1CC(Cl)=NN1c1cccnc1` (stereo not drawn) [Compound 6c, Methyl 3-chloro-1-(pyridin-3-yl)-4,5-dihydro-1H-pyrazole-5-carboxylate], the results for the mortality at 200 ppm in series [1] and in series [2] were 0 to 80% and 80 to 100%, respectively. In the case of `O=C(O)/C=N/Nc1cccnc1` [Compound 6a, (E)-2-((2-Pyridin-3-yl)hydrazono)acetic Acid Hydrochloride], the mortality at 200 ppm in series [1] and in series [2] was 0 to 80% in each case. For the compound `CCOC(=O)C1CC(Cl)=NN1c1cccnc1` (stereo not drawn) [Compound 19.6, Ethyl 3-chloro-1-(pyridin-3-yl)-4,5-dihydro-1H-pyrazole-5-carboxylate], the mortality at 200 ppm in series [1] and in series [2] was 0 to 80% each time. As to `O=C(O)c1cc(Cl)nn1-c1cccnc1` [Compound 6e, 3-Chloro-1-(pyridine-3-yl)-1H-pyrazole-5-carboxylic Acid Hydrochloride], the values for the mortality at 200 ppm in series [1] and in series [2] were 0 to 80% and less than 0%, respectively.

For orientation: mortality means the share of the test organisms that died. The melting point is the temperature of the solid-liquid transition.
